Read-outs that look alike come from different tables or passages of the source.
Legend:
[1] = system: bovine serum albumin (BSA); experiment: Fluorescamine assay of free primary amino groups of BSA incubated with D-ribose; assay type: biochemical; conditions: free primary amino group on BSA after 5 days at 37° C.; agent at 16.8 times IC50; 64% without agent
[2] = system: bovine serum albumin (BSA); experiment: SDS-PAGE assessment of BSA-BSA protein cross-links; assay type: biochemical; conditions: mixtures further incubated for 4 weeks; note: key: ++: strongly suppressed; +: suppressed; −: no suppression; *: moderate acceleration of the cross-linking
Experimental: Additionally, protein cross-links were semi-quantitatively assessed by SDS PAGE gel chromatography.
Protein-protein cross-links were characterized by SDS-PAGE. The incubation mixtures used for determination of the amino groups were further incubated for 4 weeks. An aliquot of the solution was applied to Pharmacia SDS FAST gel and the proteins were stained with Coomassie blue.

[3] = system: lysozyme; experiment: ESI-MS of lysozyme glycoforms after incubation with D-ribose; conditions: 37° C., 5 days; for Peak area as % of total area of all glycoforms, 14,569: lysozyme + 2D-ribose − 2H2O (14,569 Da); for Peak area as % of total area of all glycoforms, 14,551: lysozyme + 2D-ribose − 3H2O (14,551 Da); for Peak area as % of total area of all glycoforms, 14,533: lysozyme + 2D-ribose − 5H2O (14,533 Da); for Peak area as % of total area of all glycoforms, 14,515: lysozyme + 2D-ribose − 6H2O (14,515 Da); for Peak area as % of total area of all glycoforms, 14,419: lysozyme + D-ribose − 2H2O (14,419 Da); for Peak area as % of total area of all glycoforms, 14,401: lysozyme + D-ribose − 3H2O (14,401 Da); for Peak area as % of total area of all glycoforms, 14,437: lysozyme + D-ribose − H2O (14,437 Da); for Peak area as % of total area of all glycoforms, 14,496: lysozyme + D-ribose − H2O with one carboxymethylated Lys residue (14,496 Da); for Peak area as % of total area of all glycoforms, 14,364: lysozyme with one carboxymethylated Lys residue (14,364 Da); for Peak area as % of total area of all glycoforms, 14,305: unmodified lysozyme (14,305 Da);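 for all read-outs here: lysozyme incubated with D-ribose, with or without anti-glycation agents, then separated by reversed-phase HPLC and analysed by electrospray mass spectrometry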
Experimental: The effect of anti-glycation agents on the accumulation of glycated forms (glycoforms) of protein was evaluated by using electrospray mass spectrometry (ESI-MS). As the molecular mass of BSA was too large to monitor the small mass changes of its glycoforms, lysozyme was incubated with D-ribose and anti-glycants. Lysozyme and its glycoforms were isolated by RP-HPLC and analyzed by mass spectrometry.
Samples of lysozyme (0.756 mM; 4.54 mM of Lys residues) and D-ribose (50 mM) were incubated in the presence and absence of the selected anti-glycation agents at 37° C. for 5 days and subjected to electrospray mass spectrometry (ESI-MS) in order to characterize the protein intermediates as well as carboxymethylated lysozyme. Prior to MS measurements, the proteins were isolated by reversed phase-HPLC and were semi-dried by freeze drying.

[4] = system: bovine serum albumin (BSA); experiment: Maillard fluorescence-based assay of AGEs formation, IC50 determination (BSA + D-ribose); conditions: inhibition of Maillard fluorescence development; 0.075 mM BSA, 50 mM D-ribose, 37° C., 5 days
[5] = system: bovine serum albumin (BSA)
[6] = system: human eye; conditions: topical administration of up to 20%; cited from earlier work
[7] = system: dopaminergic neurons; conditions: cited from earlier work

Structure (SMILES) | Unreacted amino group [1] | Suppression of BSA-BSA cross-links [2] | amount of (AP-H2O) glycoform of lysozyme ([3]; FIG. 2, in words) | Peak area as % of total area of all glycoforms, 14,569 [3] | Peak area as % of total area of all glycoforms, 14,551 [3] | Peak area as % of total area of all glycoforms, 14,533 [3] | Peak area as % of total area of all glycoforms, 14,515 [3] | Peak area as % of total area of all glycoforms, 14,419 [3] | Peak area as % of total area of all glycoforms, 14,401 [3] | Peak area as % of total area of all glycoforms, 14,437 [3] | Peak area as % of total area of all glycoforms, 14,496 [3] | Peak area as % of total area of all glycoforms, 14,364 [3] | Peak area as % of total area of all glycoforms, 14,305 [3] | IC50 [4] | IC50 [5] | effect on intra-ocular pressure [6] | amount of AP glycoform of lysozyme ([3]; FIG. 2, in words) | EC50 ([7]; read-out: EC50, reduction of oxidative stress related to glycation) | concentrations of intracellular reactive oxygen species ([7]; treatment with 1 μM)
N=C(N)NN [Aminoguanidine] | 68% | + | reduced | 5.7% | 1.2% | 1.1% | 0.7% | 2.6% | 2.1% | 26.2% | 1.4% | 3.2% | 54.5% | 345 µM |  |  |  |  | 
NC[C@H](O)c1ccc(O)c(O)c1 [D-Norepinephrine] | 67% | + |  | 1.0% | 0.0% | 0.0% | 0.0% | 1.9% | 1.9% | 12.1% | 0.7% | 5.0% | 77.3% |  | 66 µM |  |  |  | 
CC(C)NCC(O)c1ccc(O)c(O)c1.Cl [D-isoproterenol hydrochloride] |  |  |  |  |  |  |  |  |  |  |  |  |  |  |  | did not lower intra-ocular pressure |  |  | 
CN(C)[C@@H]1C(O)=C(C(N)=O)C(=O)[C@@]2(O)C(O)=C3C(=O)c4c(O)ccc(Cl)c4[C@@H](O)[C@H]3C[C@@H]12 [Demeclocycline] | 69% | + |  | 1.4% | 0.0% | 0.0% | 0.0% | 3.0% | 1.9% | 13.7% | 0.0% | 4.2% | 75.2% |  | 19 µM |  |  |  | 
CCC(NC(C)C)C(O)c1ccc(O)c(O)c1 (centres unmarked) [Isoetharine] | 70% | + |  | 1.6% | 0.7% | 0.9% | 0.9% | 1.6% | 1.3% | 14.3% | 1.4% | 3.9% | 73.4% | 25 µM |  |  |  |  | 
CNC[C@H](O)c1ccc(O)c(O)c1 [L-Epinephrine] | 69% | ++ | reduced | 1.7% | 0.0% | 0.0% | 0.0% | 2.0% | 0.8% | 15.3% | 1.0% | 4.8% | 74.5% |  | 18 µM |  | reduced |  | 
O=C1c2c(O)ccc(O)c2C(=O)c2c(NCCNCCO)ccc(NCCNCCO)c21 [Mitoxantrone] | 50% | + |  | 5.9% | 3.6% | 1.3% | 0.8% | 6.5% | 1.9% | 25.2% | 1.0% | 1.6% | 49.8% |  | 630 µM |  |  |  | 
CN1CCCN=C1/C=C/c1cccc(O)c1 [Oxantel] | 55% | + |  | 3.1% | 2.0% | 1.7% | 1.1% | 5.6% | 3.7% | 17.4% | 1.7% | 5.4% | 57.7% |  | 600 µM |  |  |  | 
Cc1cc(-c2ccc(/N=N/c3c(S(=O)(=O)O)cc4cc(S(=O)(=O)O)cc(N)c4c3O)c(C)c2)ccc1/N=N/c1c(S(=O)(=O)O)cc2cc(S(=O)(=O)O)cc(N)c2c1O [Trypan blue] | 60% | + |  | 4.6% | 3.4% | 1.9% | 1.6% | 5.6% | 3.0% | 20.2% | 2.1% | 3.7% | 49.8% | 240 µM |  |  |  |  | 
NC[C@H](O)c1ccc(O)c(O)c1 [noradrenaline] |  |  |  |  |  |  |  |  |  |  |  |  |  |  |  |  |  | ~0.3 µM | drastically reduced

Source: patent US20080139664A1, “ANTI-GLYCATION AGENTS FOR PREVENTING AGE-, DIABETES-, AND SMOKING-RELATED COMPLICATIONS” (NATIONAL RESEARCH COUNCIL OF CANADA, priority 2001, published 2008)
